These results are taken from PubChem BioAssay (NCI).

Some test systems named below: SK-OV-3 ovarian; T-47D breast; NCI-H226 lung; MCF7 breast; HOP-92 NSCLC; HS 578T breast; SF-295 CNS; UO-31 renal; SNB-19 CNS; IGROV1 ovarian.
Holding throughout (assay): NCI anticancer screen, dose series, 48 h

Each structure is given as a SMILES string.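 Grown in 96-well plates, cells were treated for 48 hours with each compound at five concentrations. Insufficient inhibition: endpoint recorded as highest concentration tested. GI50 marks 50% less growth. TGI is the concentration that stops growth completely.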 Where only a bound is given, the exact number is not on record here.

Turning to `COc1cc(OC)cc(-c2cc(=O)c3c(OC)c(OC)c(OC)c(OC)c3o2)c1`, the TGI in the assay with SK-OV-3 ovarian was 54.2 µM; in the assay on T-47D breast, 64.1 µM; with NCI-H226 lung, greater than 100 µM; in the assay with MCF7 breast, greater than 100 µM; with HOP-92 NSCLC, 90.8 µM; in the assay on HS 578T breast it was 90.6 µM. Also, the TGI in the assay on SF-295 CNS is 69.8 µM; in the assay on UO-31 renal, greater than 100 µM; in the assay on SNB-19 CNS, greater than 100 µM; in the assay on IGROV1 ovarian it was greater than 100 µM.
For `C[C@@H]1CCC2[C@@H](C)[C@@H](OCC(CO[C@H]3OC4O[C@@]5(C)CC[C@H]6[C@H](C)CCC([C@H]3C)[C@@]46OO5)OC(=O)CCC(=O)O)OC3O[C@@]4(C)CC[C@@H]1[C@]32OO4` (some centres undefined), the GI50 was 27.2 µM in the assay on SK-OV-3 ovarian; less than 0.01 µM with T-47D breast; 0.933 µM with NCI-H226 lung; less than 0.01 µM with MCF7 breast; 0.097 µM in the assay on HOP-92 NSCLC; 1.81 µM with HS 578T breast. Also, the GI50 with SF-295 CNS is 0.0335 µM; in the assay on UO-31 renal it was 1.57 µM; in the assay on SNB-19 CNS it was 10.1 µM; with IGROV1 ovarian, 12.6 µM. Further, the TGI with SK-OV-3 ovarian was greater than 100 µM; in the assay with T-47D breast, greater than 100 µM; in the assay on NCI-H226 lung, 40 µM; in the assay on MCF7 breast, 16.7 µM; in the assay on HOP-92 NSCLC, 3.26 µM; in the assay on HS 578T breast, 34.9 µM. The TGI in the assay on SF-295 CNS is 15.8 µM; with UO-31 renal, greater than 46 µM; in the assay with SNB-19 CNS it was 23.1 µM; in the assay with IGROV1 ovarian, greater than 69 µM.
As to `CC(=O)OC1=CC(n2cc(F)c(=O)[nH]c2=O)OC(C)C1=O` (centres undefined), the TGI in the assay with SK-OV-3 ovarian is greater than 100 µM; in the assay with T-47D breast, greater than 100 µM; with NCI-H226 lung, greater than 100 µM; in the assay on MCF7 breast, greater than 76.2 µM; in the assay with HOP-92 NSCLC, greater than 100 µM; in the assay with HS 578T breast it was greater than 100 µM. Further, the TGI in the assay with SF-295 CNS, in the assay with UO-31 renal, in the assay with SNB-19 CNS and in the assay on IGROV1 ovarian was greater than 100 µM throughout.
In the case of `NS(=O)(=O)c1cc(Br)c(N=Nc2ccc(O)c3ncccc23)c(Br)c1`, the TGI in the assay on SK-OV-3 ovarian was greater than 100 µM; in the assay on T-47D breast, 98.8 µM; with NCI-H226 lung it was greater than 100 µM; with MCF7 breast, 38.5 µM; in the assay with HOP-92 NSCLC, greater than 100 µM; in the assay with HS 578T breast, 78.5 µM. For the same molecule, the TGI with SF-295 CNS was greater than 100 µM; in the assay on UO-31 renal it was 89.6 µM; in the assay with SNB-19 CNS it was greater than 100 µM; with IGROV1 ovarian it was greater than 100 µM.
On to `OCc1ccc(-c2ccc(-c3ccc(CO)s3)o2)s1`, for which the TGI with SK-OV-3 ovarian was 39.2 µM; in the assay with T-47D breast, 7.59 µM; in the assay on NCI-H226 lung, 0.145 µM; with MCF7 breast, 2.59 µM; in the assay on HOP-92 NSCLC, 91.2 µM; in the assay with HS 578T breast, 86.6 µM. Besides, the TGI with SF-295 CNS was 74.1 µM; with UO-31 renal, greater than 84.7 µM; with SNB-19 CNS, greater than 100 µM; in the assay on IGROV1 ovarian, 0.676 µM.
Turning to `COC1=CC(=O)C(C2CC(=O)c3c(O)cc(O)cc3O2)=CC1=O` (centres undefined), the TGI is greater than 93.9 µM in the assay with SK-OV-3 ovarian; 42.7 µM with T-47D breast; 40.4 µM in the assay with NCI-H226 lung; 42.3 µM with MCF7 breast; 17.6 µM in the assay with HOP-92 NSCLC; 83 µM in the assay on HS 578T breast. In addition, the TGI came to 35.1 µM in the assay on SF-295 CNS, 32.2 µM in the assay with UO-31 renal, 68.2 µM in the assay with SNB-19 CNS and 33.6 µM in the assay on IGROV1 ovarian.
For the molecule `Cn1cnc([N+](=O)[O-])c1S(=O)(=O)Oc1cccc2ccccc12`, the GI50 is 46.9 µM in the assay with SK-OV-3 ovarian; 1.91 µM in the assay on T-47D breast; 3.79 µM in the assay with NCI-H226 lung; 3.56 µM with MCF7 breast; 2.6 µM in the assay on HOP-92 NSCLC; 26.5 µM in the assay with HS 578T breast. Moreover, the GI50 is 21.2 µM in the assay with SF-295 CNS, 1.4 µM with UO-31 renal, 29 µM in the assay with SNB-19 CNS and 2.14 µM in the assay on IGROV1 ovarian. Besides, the TGI in the assay on SK-OV-3 ovarian was greater than 100 µM; in the assay on T-47D breast it was 4.29 µM; in the assay on NCI-H226 lung, 31 µM; in the assay on MCF7 breast, 14.5 µM; with HOP-92 NSCLC, 11.5 µM; in the assay with HS 578T breast it was greater than 100 µM. Moreover, the TGI in the assay on SF-295 CNS is greater than 65.3 µM; in the assay on UO-31 renal it was 4.33 µM; with SNB-19 CNS, greater than 100 µM; in the assay with IGROV1 ovarian, 5.09 µM.
Turning to `O=C(/C=C/c1ccc(Cl)cc1)c1ccc(Nc2ccnc3cc(Cl)ccc23)cc1`, the GI50 was greater than 100 µM in the assay with SK-OV-3 ovarian; greater than 55.7 µM in the assay with T-47D breast; greater than 100 µM with NCI-H226 lung; 1.56 µM in the assay with MCF7 breast; greater than 40.6 µM in the assay on HOP-92 NSCLC; 36.3 µM in the assay with HS 578T breast. For the same molecule, the GI50 in the assay on UO-31 renal is greater than 74.7 µM; in the assay on SNB-19 CNS it was greater than 57.6 µM; in the assay with IGROV1 ovarian it was 48.6 µM. The TGI with SK-OV-3 ovarian, in the assay with T-47D breast, with NCI-H226 lung, in the assay with MCF7 breast, with HOP-92 NSCLC and with HS 578T breast was greater than 100 µM throughout. Moreover, the TGI in the assay with SF-295 CNS is greater than 48.8 µM; in the assay with UO-31 renal, greater than 100 µM; in the assay on SNB-19 CNS it was greater than 100 µM; in the assay on IGROV1 ovarian, greater than 100 µM.
In the case of `CC(C)C(C)/C=C\C(C)C1CCC2C3=CC=C4CC(O)CCC4(C)C3CCC21C` (centres undefined), the TGI in the assay on SK-OV-3 ovarian is greater than 100 µM; with T-47D breast, greater than 100 µM; in the assay with NCI-H226 lung, greater than 65.3 µM; with MCF7 breast, greater than 100 µM; with HOP-92 NSCLC it was 70.2 µM; in the assay on HS 578T breast, greater than 64.2 µM. For the same molecule, the TGI with SF-295 CNS is greater than 100 µM; in the assay on UO-31 renal, greater than 79 µM; in the assay with SNB-19 CNS it was greater than 100 µM; in the assay with IGROV1 ovarian, greater than 54.3 µM.
Regarding `CSc1nc(NC2OCC(OC(C)=O)C(OC(C)=O)C2OC(C)=O)c(N=CC=Nc2c(NC3OCC(OC(C)=O)C(OC(C)=O)C3OC(C)=O)nc(SC)[nH]c2=O)c(=O)[nH]1` (centres undefined), the TGI was 80.1 µM in the assay on SK-OV-3 ovarian; greater than 100 µM with T-47D breast; greater than 88.8 µM with NCI-H226 lung; greater than 100 µM in the assay on MCF7 breast; greater than 100 µM in the assay on HOP-92 NSCLC; greater than 100 µM in the assay on HS 578T breast. Further, the TGI was greater than 100 µM in the assay on SF-295 CNS, greater than 100 µM with UO-31 renal, greater than 85.8 µM in the assay on SNB-19 CNS and greater than 100 µM in the assay with IGROV1 ovarian.
As to `Cc1cc(O)c(/C=N/C(=S)NCc2ccccc2)c(=O)o1`, the TGI in the assay on SK-OV-3 ovarian, with T-47D breast, with NCI-H226 lung, in the assay with MCF7 breast, in the assay on HOP-92 NSCLC and in the assay with HS 578T breast was greater than 100 µM in each case. Moreover, the TGI in the assay on SF-295 CNS, with UO-31 renal, in the assay with SNB-19 CNS and in the assay with IGROV1 ovarian was greater than 100 µM each time.
For `CCOC(=O)c1cc2nc3ccccc3c(=O)n2c2ccccc12`, the TGI in the assay on SK-OV-3 ovarian, in the assay on T-47D breast, in the assay on NCI-H226 lung, in the assay with MCF7 breast, in the assay on HOP-92 NSCLC and with HS 578T breast was greater than 10 µM throughout. In addition, the TGI in the assay with SF-295 CNS, in the assay on UO-31 renal, with SNB-19 CNS and in the assay with IGROV1 ovarian was greater than 10 µM in each case.
Take `CC(C)(C)OC(=O)N[C@H]1CC2(C=C(Cl)C(=O)C(Cl)=C2)OC1=O`: the TGI with SK-OV-3 ovarian is greater than 46.4 µM; in the assay with T-47D breast it was 40.5 µM; with NCI-H226 lung it was greater than 81.6 µM; with MCF7 breast, 23.3 µM; with HOP-92 NSCLC it was 31.7 µM; in the assay on HS 578T breast, 75.5 µM. Further, the TGI was 47.5 µM in the assay on SF-295 CNS, 38.8 µM in the assay with UO-31 renal, greater than 100 µM with SNB-19 CNS and 36 µM with IGROV1 ovarian.
Regarding `Cc1cc2c(cc1Cl)SC(N(N(C)C)S(=O)(=O)c1ccc(Cl)cc1)=NS2(=O)=O`, the GI50 with SK-OV-3 ovarian is 33.8 µM; in the assay on T-47D breast it was 15.8 µM; in the assay with NCI-H226 lung it was 30.5 µM; in the assay on MCF7 breast, 12.6 µM; with HOP-92 NSCLC, 14.8 µM; in the assay on HS 578T breast, 23.4 µM. For the same molecule, the GI50 in the assay with SF-295 CNS was 30.3 µM; with UO-31 renal, 28.3 µM; in the assay on SNB-19 CNS, 25.2 µM; in the assay with IGROV1 ovarian it was 31.8 µM. The TGI in the assay on SK-OV-3 ovarian is greater than 100 µM; with T-47D breast it was greater than 100 µM; with NCI-H226 lung, 89.9 µM; in the assay with MCF7 breast, 48.3 µM; in the assay on HOP-92 NSCLC, 35.3 µM; in the assay with HS 578T breast, 67.3 µM. Also, the TGI in the assay on SF-295 CNS, in the assay on UO-31 renal, in the assay on SNB-19 CNS and in the assay on IGROV1 ovarian was greater than 100 µM throughout.
